{"source": "patent US20200000873A1", "about": "“METHODS FOR IMPROVING THE COGNITIVE FUNCTIONS OF A SUBJECT” (The Regents of the University of California, priority 2017, published 2020)", "key": {"Brown Norway rats [1]": {"test_system": "Brown Norway rats", "assay": "Probabilistic reversal learning task (PRLT) after long-term (21 days) administration of oxytocin", "type": "in vivo, rat", "description": "(§1) Probabilistic learning, an aspect of executive function, can be assessed in rodents using a probabilistic reversal learning task (PRLT). A PRLT is typically a 1-hour test using two recessed lights in the back of the operant chamber as stimuli (see, FIGS. 2, 3 and 4). After illumination and subsequent extinguishing of the magazine light via nose-poke, a 2 second inter-trial interval occurs, which is then immediately followed by a 10 second period during which two apertures are illuminated wherein the rat can respond via nose-poke. One of the two stimuli is designated the target stimulus, and responses to it are rewarded more frequently (e.g., rewarded 80% of the time) (aperture light extinguished and reward delivered into the magazine) and punished less frequently (e.g., 20% of the time) (aperture light extinguished and house light illuminated for a 4-second timeout period during which no reward was delivered). The other stimulus was designated the non-target stimulus, to which responses are rewarded less frequently (e.g., 20% of the time) and punished more frequently (80% of the time). Initial target and non-target locations are alternated among the testing chambers such that the first target of the session is, for example, the left light in four of the eight chambers, and the right in the others. […] After first criterion acquisition, the target and non-target locations are reversed. The subject then has to recognize that this change, or “switch,” had occurred and adjust its responses accordingly. After another 8 consecutive correct responses, the ratios are switched again. This pattern is repeated for the remainder of the 1-hour session. The number of switches the subject is able to complete within the testing period was the primary outcome variable of PRLT to measure reversal learning. An additional primary outcome measure, trials to first criterion, provided a measure of initial reinforcement learning without the confound of reversal learning included.\n(§2) Several latency measures included mean target latency (millisecond (ms) to respond in the target stimulus), mean non-target latency (ms to respond in the non-target stimulus), and mean reward latency (ms to collect the reward).\n(§3) Rats (Brown Norway rats or Long Evans rats) executive function was tested using a nine-choice operant box (e.g., see FIG. 2). The nine-choice operant box has nine depressions in which a rat can poke its nose into (see FIG. 2), where each depression comprises a light emitting diode (LED). A rat was placed in the box and two of the LEDs were illuminated (e.g., see FIG. 3). One LED, the ‘target’, rewarded a rat's nose poke 80% of the time with food while the other LED, the ‘nontarget’, rewarded a rat's nose poke only 20% of the time. After eight consecutive responses in which the ‘target’ LED was selected, the reward ratios for the two LED's were switched, and the next block of testing was begun. Brown Norway rats were used as test subjects while Long Evans rats were used as controls.\n(§4) Scoring of executive function was based on the number of switches a rat was able to complete within a one-hour test period, as well as the number of block changes a rat can progress through. In particular, the scoring and conclusions of executive function were made as follows:\n(§5) A primary measure of executive function. The number of times the ‘target’ stimulus switches following eight consecutive “correct” responses by the subject. The number of switches a rat is able to complete within a one-hour test period indicates how quickly the rat is able to detect and adjust to reversals. The more switches completed by the rat, the better the executive function of the rat.\n(§6) A primary measure of executive function. Indicates how quickly rat was able to progress through the blocks—the block changes whenever the target switches, so if the subject completed five blocks and is working on the sixth when the one hour testing session ends. […]"}, "humans": {"test_system": "humans", "conditions": "humans treated with oxytocin, reported; cited from earlier work"}, "Brown Norway rats [2]": {"test_system": "Brown Norway rats", "assay": "Probabilistic reversal learning task (PRLT), single (acute) administration of oxytocin", "type": "in vivo, rat", "description": "as §1, §2, §3, §4, §5, §6"}, "[3]": {"conditions": "oxytocin 1.00 mg/kg, Brown Norway rats"}}, "data": [{"smiles": "CC[C@H](C)[C@@H]1NC(=O)[C@H](Cc2ccc(O)cc2)NC(=O)[C@@H](N)CSSC[C@@H](C(=O)N2CCC[C@H]2C(=O)N[C@@H](CC(C)C)C(=O)NCC(N)=O)NC(=O)[C@H](CC(N)=O)NC(=O)[C@H](CCC(N)=O)NC1=O", "note": "[oxytocin]", "values": [{"measurement": "trials to first criterion", "setting": "Brown Norway rats [1]; 1 mg/kg OT vs. vehicle in BN rats, long-term administration", "result": "appears to reduce"}, {"measurement": "number of switches in the PRLT", "setting": "Brown Norway rats [1]; BN rats previously treated with 0.04 mg/kg OT compared with LE rats", "result": "LE rats exhibited more switches"}, {"measurement": "number of switches in the PRLT", "setting": "Brown Norway rats [1]; BN rats previously treated with 0.2 mg/kg OT compared with LE rats", "result": "LE rats exhibited more switches"}, {"measurement": "number of switches in the PRLT", "setting": "Brown Norway rats [1]; BN rats treated with 1 mg/kg OT vs. vehicle-treated BN rats, long-term administration", "result": "significantly more switches"}, {"measurement": "executive function after discontinuation of OT", "setting": "Brown Norway rats [1]; BN rats, 1.0 mg/kg OT for 21 days, tested approximately one week or more after discontinuation", "result": "persistent improvement"}, {"measurement": "time post treatment at which improvement of executive function was seen", "setting": "Brown Norway rats [1]; [3]", "result": 7, "unit": "days"}, {"measurement": "cognitive performance and memory", "setting": "humans", "result": "Impairments"}, {"measurement": "executive function, effect of dose", "setting": "Brown Norway rats [2]; BN rats, 1.00 mg/kg vs. lower doses 0.04 mg/kg and 0.20 mg/kg", "result": "dose dependent"}, {"measurement": "number of switches in the PRLT", "setting": "Brown Norway rats [2]; acute OT 0.04 mg/kg, BN rats vs. vehicle-treated LE rats", "result": "fewer switches"}, {"measurement": "total trials to initial criterion", "setting": "Brown Norway rats [2]; acute OT 1 mg/k/g, BN rats vs. both vehicle-treated BN and LE rats", "result": "reduced"}, {"measurement": "total number of switches completed in the PRLT", "setting": "Brown Norway rats [2]; acute OT 1 mg/kg, BN rats vs. vehicle", "result": "increased"}, {"measurement": "probabilistic learning of subjects", "setting": "Brown Norway rats [2]; administration of oxytocin", "result": "significantly improved"}, {"measurement": "improvement in executive function", "setting": "Brown Norway rats [2]; [3]", "result": "significant"}, {"measurement": "number of switches", "setting": "Brown Norway rats [2]; oxytocin administered to Brown Norway rats, dose not stated", "result": "increased"}, {"measurement": "executive function of the animal subjects", "setting": "Brown Norway rats [2]; oxytocin administered to animal subjects", "result": "significantly improved"}]}]}
